Patent publication US8574563B2 (Bristol-Myers Squibb Company, priority 2006, dated 2013)
Read-outs that look alike come from different tables or passages of the source.

Tested on: HCV 1b-377-neo replicon cells
Test: HCV replicon assay, HCV 1b-377-neo replicon cells (1b FRET)
Format: cell-based, Hepatitis C virus genotype 1b
Conditions: HCV 1b-377-neo replicon cells, HCV 1b genotype, read-out: EC50 range against HCV 1b (Table 2, Range)
Procedure, shortened: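 Compounds tested in HCV genotype 1b-377-neo replicon cells with a FRET read-out. Cells resistant to a reference NS5A inhibitor through a Y2065H NS5A mutation were run alongside wild-type cells.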

With Cc1[nH]c([C@@H]2CCCN2C(=O)[C@@H](c2ccccc2)N2CCCCC2)nc1-c1ccc(-c2ccc(-c3cnc([C@@H]4CCCN4C(=O)[C@@H](c4ccccc4)N4CCCCC4)[nH]3)cc2)cc1 [Example E5b, 1-((1R)-2-((2S)-2-(4-(4′-(4-methyl-2-((2S)-1-((2R)-2-phenyl-2-(1-piperidinyl)acetyl)-2-pyrrolidinyl)-1H-imidazol-5-yl)-4-biphenylyl)-1H-imidazol-2-yl)-1-pyrrolidinyl)-2-oxo-1-phenylethyl)piperidine] the EC50 (Hepatitis C virus) was 1 to 999 pM.

O=C(N[C@@H](C(=O)N1CCC[C@H]1c1ncc(-c2ccc(-c3ccc(-c4cnc([C@@H]5CCCN5C(=O)[C@@H]5CCCO5)[nH]4)cc3)cc2)[nH]1)c1ccccc1)[C@@H]1CCCO1 [Example 112, (2S)-N-((1R)-2-oxo-1-phenyl-2-((2S)-2-(5-(4′-(2-((2S)-1((2S)-tetrahydro-2-furanylcarbonyl)-2-pyrrolidinyl)-1H-imidazol-5-yl)-4-biphenylyl)-1H-imidazol-2-yl)-1-pyrrolidinyl)ethyl) tetrahydro-2-furancarboxamide] gave an EC50 (Hepatitis C virus) of 1 to 999 pM.

With COC(=O)N[C@@H](C(=O)N1CCC[C@H]1c1ncc(-c2ccc(-c3ccc(-c4cnc([C@@H]5CCCN5C(=O)Cc5ccncc5)[nH]4)cc3)cc2)[nH]1)c1ccccc1 [Example 48, methyl ((1R)-2-oxo-1-phenyl-2-((2S)-2-(5-(4′-(2-((2S)-1-(4-pyridinylacetyl)-2-pyrrolidinyl)-1H-imidazol-5-yl)-4-biphenylyl)-1H-imidazol-2-yl)-1-pyrrolidinyl)ethyl)carbamate] the EC50 (Hepatitis C virus) was 1 to 999 pM.

Work on O=C([C@@H](c1ccccc1)N1CCCCC1)N1CCC[C@H]1c1ncc(-c2ccc(-c3ccc(-c4cnc([C@@H]5CCCN5C(=O)[C@@H](c5ccccc5)N5CCCCC5)[nH]4)cc3)cc2)[nH]1 [Example 24-1, 1,1′-(4,4′-biphenyldiylbis(1H-imidazole-5,2-diyl(2S)-2,1-pyrrolidinediyl((1R)-2-oxo-1-phenyl-2,1-ethanediyl)))dipiperidine] yielded an EC50 (Hepatitis C virus) of 1 to 999 pM.

Work on CCC(CC)[C@H](NC(=O)OC)C(=O)N1CCC[C@H]1c1ncc(-c2ccc(-c3ccc(-c4cnc([C@@H]5CCCN5C(=O)[C@@H](NC(=O)OC)C(CC)CC)[nH]4)cc3)cc2)[nH]1 [OL-4, methyl ((1S)-2-ethyl-1-(((2S)-2-(4-(4′-(2-((2S)-1-((2S)-3-ethyl-2-((methoxycarbonyl)amino)pentanoyl)-2-pyrrolidinyl)-1H-imidazol-4-yl)-4-biphenylyl)-1H-imidazol-2-yl)-1-pyrrolidinyl)carbonyl)butyl)carbamate] yielded an EC50 (Hepatitis C virus) of 1 to 999 pM.

In the case of COC(=O)N[C@@H](C(=O)N1CCC[C@H]1c1ncc(-c2ccc(-c3ccc(-c4cnc([C@@H]5CCCN5C(=O)C(c5cccc(F)c5)N(C)C)[nH]4)cc3)cc2)[nH]1)c1ccccc1 (stereo partly drawn) [Example 84-60, methyl ((1R)-2-((2S)-2-(5-(4′-(2-((2S)-1-((dimethylamino)(3-fluorophenyl)acetyl)-2-pyrrolidinyl)-1H-imidazol-5-yl)-4-biphenylyl)-1H-imidazol-2-yl)-1-pyrrolidinyl)-2-oxo-1-phenylethyl)carbamate], the EC50 (Hepatitis C virus) is reported as 1 to 999 pM.

In the case of COC(=O)N[C@@H](C(=O)N1[C@@H]2C[C@@H]2C[C@H]1c1nc(-c2ccc(-c3ccc(-c4c[nH]c([C@@H]5C[C@H]6C[C@H]6N5C(=O)[C@H](NC(=O)OC)c5ccccc5)n4)cc3)cc2)c[nH]1)c1ccccc1 [Example M137, dimethyl (4,4′-biphenyl-diylbis(1H-imidazole-4,2-diyl(1R,3S,5R)-2-azabicyclo[3.1.0]hexane-3,2-diyl((1R)-2-oxo-1-phenyl-2,1-ethanediyl)))biscarbamate], the EC50 (Hepatitis C virus) is reported as 1 to 999 pM.

With COC(=O)N[C@H](C(=O)N1CCC[C@H]1c1ncc(-c2ccc(-c3ccc(-c4cnc([C@@H]5CCCN5C(=O)[C@@H](NC(=O)OC)C(C)(C)C)[nH]4)cc3)cc2)[nH]1)C(C)C [Example M72, methyl ((1S)-1-(((2S)-2-(5-(4′-(2-((2S)-1-((2S)-2-((methoxycarbonyl)amino)-3,3-dimethylbutanoyl)-2-pyrrolidinyl)-1H-imidazol-5-yl)-4-biphenylyl)-1H-imidazol-2-yl)-1-pyrrolidinyl)carbonyl)-2-methylpropyl)carbamate] the EC50 (Hepatitis C virus) was 1000 to 99000 pM.

COC(=O)N[C@@H](C(=O)N(C)[C@@H](C)c1ncc(-c2ccc(-c3ncc(-c4cnc([C@@H]5CCCN5C(=O)[C@H](NC(=O)OC)c5ccccc5)[nH]4)cn3)cc2)[nH]1)c1ccccc1 [Example 152j-21, methyl ((1R)-2-((2S)-2-(5-(2-(4-(2-((1S)-1-(((2R)-2-((methoxycarbonyl)amino)-2-phenylacetyl)(methyl)amino)ethyl)-1H-imidazol-5-yl)phenyl)-5-pyrimidinyl)-1H-imidazol-2-yl)-1-pyrrolidinyl)-2-oxo-1-phenylethyl)carbamate] showed an EC50 (Hepatitis C virus) of 1 to 999 pM.

CN(C)C(C(=O)N1CCC[C@H]1c1ncc(-c2ccc(-c3ccc(-c4cnc([C@@H]5CCCN5C(=O)[C@@H](c5ccccc5)N(C)C)[nH]4)cc3)cc2)[nH]1)c1ccc(Cl)nc1 (stereo partly drawn) [Example 94-44, 1-(6-chloro-3-pyridinyl)-2-((2S)-2-(5-(4′-(2-((2S)-1-((2R)-2-(dimethylamino)-2-phenylacetyl)-2-pyrrolidinyl)-1H-imidazol-5-yl)-4-biphenylyl)-1H-imidazol-2-yl)-1-pyrrolidinyl)-N,N-dimethyl-2-oxoethanamine] gave an EC50 (Hepatitis C virus) of 1 to 999 pM.

With CCN(CC)[C@@H](C(=O)N1CCC[C@H]1c1ncc(-c2ccc(-c3ccc(-c4cnc([C@@H]5CC(F)(F)CN5C(=O)[C@@H](c5ccccc5)N(CC)CC)[nH]4)cc3)cc2)[nH]1)c1ccccc1 (mixture of isomers) [OL-13, rac-(1R)-2-((2S)-2-(4-(4′-(2-((2S)-1-((2R)-2-(diethylamino)-2-phenylacetyl)-4,4-difluoro-2-pyrrolidinyl)-1H-imidazol-4-yl)-4-biphenylyl)-1H-imidazol-2-yl)-1-pyrrolidinyl)-N,N-diethyl-2-oxo-1-phenylethanamine] the EC50 (Hepatitis C virus) was 1 to 999 pM.

CCN(CC)[C@@H](C(=O)N1CCC[C@H]1c1ncc(-c2ccc(-c3ccc(-c4cnc([C@@H]5CCCN5C(=O)[C@@H](C)NC(=O)OC)[nH]4)cc3)cc2)[nH]1)c1ccccc1 [Example M53, methyl ((1R)-2-((2S)-2-(5-(4′-(2-((2S)-1-((2R)-2-(diethylamino)-2-phenylacetyl)-2-pyrrolidinyl)-1H-imidazol-5-yl)-4-biphenylyl)-1H-imidazol-2-yl)-1-pyrrolidinyl)-1-methyl-2-oxoethyl)carbamate] showed an EC50 (Hepatitis C virus) of 1000 to 99000 pM.

In the case of CN(C)CC(=O)N[C@@H](C(=O)N1CCC[C@H]1c1ncc(-c2ccc(-c3ccc(-c4c[nH]c([C@@H]5CCCN5C(=O)[C@H]5CCCO5)n4)cc3)cc2)[nH]1)c1ccccc1 [Example 120-8, N^2,N^2-dimethyl-N-((1R)-2-oxo-1-phenyl-2-((2S)-2-(5-(4′-(2-((2S)-1-((2R)-tetrahydro-2-furanylcarbonyl)-2-pyrrolidinyl)-1H-imidazol-4-yl)-4-biphenylyl)-1H-imidazol-2-yl)-1-pyrrolidinyl)ethyl) glycinamide], the EC50 is reported as 1000 to 99000 pM.

In the case of COC(=O)N[C@@H](C(=O)N1CCC[C@H]1c1ncc(-c2ccc(-c3ncc(-c4cnc([C@@H]5CCCN5C(=O)[C@@H](c5ccccc5)N5CCCCC5)[nH]4)cn3)cc2)[nH]1)c1ccccc1 [Example 152l-3], the EC50 (Hepatitis C virus) is reported as 1 to 999 pM.
